In PMC9137581, “Identification of a Novel Class of Anti-Melanogenic Compounds, (Z)-5-(Substituted benzylidene)-3-phenyl-2-thioxothiazolidin-4-one Derivatives, and Their Reactive Oxygen Species Scavenging Activities” (Antioxidants, 2022):

Columns and labels:
[1] = Calculated log p (ChemDraw Ultra 12.0); conditions: from calculated log p 3.16 vs. –2.45
Description: In order to determine how well the (Z)-BPTT analogs are absorbed by skin, their log p (partition coefficient) values were examined using ChemDraw Ultra Ver. 12.0.

tyrosinase = assay: qRT-PCR of tyrosinase mRNA; format: cell-based, murine; conditions: versus non-treated controls, B16F10 cells
Method: The total RNAs from the cells were purified using the RiboEx Total RNA solution (GeneAll Biotechnology, Seoul, Korea) and the cDNA was synthesized from the total RNA (2 µg) using SuPrimeScript RT Premix with random hexamer (GeNet Bio, Daejeon, Korea), according to the manufacturers’ instructions. Real-time qPCR was performed using SensiFASTTM SYBR® No-ROX dye (Bioline, London, UK) and a CFX Connect System (Bio-Rad Laboratories, Hercules, CA, USA). The qRT-PCR primers that are specifically for tyrosinase, TRP-1, TRP-2, and β-actin were obtained from Bioneer Inc. (Daejeon, Korea). The relative gene expressions were calculated using the standard curve method and β-actin as the internal control.

B16F10 cells = assay: Melanin content assay in α-MSH plus IBMX-stimulated cells; format: cell-based, murine; conditions: for reduction of α-MSH plus IBMX-induced increase in melanin content: 48 h, B16F10 cells; for effect on melanin content compared with kojic acid: analog at 5 µM
Method: Briefly, B16F10 cells were seeded at a density of 1 × 10^5 cells per well in 6-well plates and allowed to adhere to the well bases under the same conditions that were used for cell culturing. […] In order to determine the melanin contents, the B16F10 cells that were exposed to α-MSH and IBMX for 48 h were rinsed with PBS twice and incubated in 200 µL of 1 N NaOH solution containing 10% dimethyl sulfoxide (DMSO) for 1 h at 60 °C. The cell lysates were transferred to a 96-well plate and the absorbances at 405 nm were measured using a microplate reader (VersaMax™, Molecular Devices, Sunnyvale, CA, USA). These experiments were performed individually in triplicate. B16F10 cells were seeded in 6-well culture plates and pretreated with analogs 1, 3, and 6 at concentrations of 0, 5, 10, or 20 µM and with analog 2 at 0, 2.5, 5, or 10 µM for 1 h. α-Melanocyte-stimulating hormone (α-MSH; 1 µM) and 3-isobutyl-1-methylxanthine (IBMX; 200 µM) were added sequentially in order to enhance melanin production. After incubation for 48 h at 37 °C, the melanin contents were assessed by measuring the well optical densities at 405 nm using a microplate reader. Kojic acid (10 or 20 µM) was used as a positive control.

[2] = biological target: T1, cellular tyrosinase in B16F10 cells (Mus musculus, UniProt P11344); assay: Cellular tyrosinase activity (L-DOPA oxidation in lysates); format: cell-based, murine; conditions: for inhibition of α-MSH plus IBMX-induced cellular tyrosinase activity compared with kojic acid: analog at 20 µM
T1 construct: endogenous in cells; host or cells: B16F10 murine melanoma cells (ATCC), stimulated with α-MSH and IBMX
T1 sequence (P11344 19-533): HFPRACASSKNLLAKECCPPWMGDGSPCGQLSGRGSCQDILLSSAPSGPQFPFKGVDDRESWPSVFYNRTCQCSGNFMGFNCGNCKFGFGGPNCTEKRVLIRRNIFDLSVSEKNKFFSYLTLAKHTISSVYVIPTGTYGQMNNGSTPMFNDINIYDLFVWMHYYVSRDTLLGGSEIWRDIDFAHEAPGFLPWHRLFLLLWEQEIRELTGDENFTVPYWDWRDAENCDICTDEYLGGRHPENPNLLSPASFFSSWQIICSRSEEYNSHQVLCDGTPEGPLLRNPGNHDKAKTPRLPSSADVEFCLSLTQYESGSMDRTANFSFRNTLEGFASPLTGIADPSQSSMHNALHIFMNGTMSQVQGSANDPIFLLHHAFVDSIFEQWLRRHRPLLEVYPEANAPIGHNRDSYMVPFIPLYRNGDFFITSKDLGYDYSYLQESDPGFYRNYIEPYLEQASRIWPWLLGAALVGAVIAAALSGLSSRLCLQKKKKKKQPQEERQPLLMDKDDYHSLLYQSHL
Method: The cellular tyrosinase activity was examined by assessing the oxidation rate of L-DOPA, as was previously described, with a slight modification. In brief, B16F10 cells were seeded at a density of 1 × 10^5 cells/well in a 6-well plate and allowed to adhere to the well bases using the same conditions that were used for cell culturing. […] After incubation for 48 h under the same conditions that were used for cell culturing, the cells were rinsed twice with PBS and then exposed to 100 µL of a lysis buffer solution (90 µL of 50 mM phosphate buffer in pH 6.5, 5 µL of 2 mM PMSF, and 5 µL of 20% Triton X-100) and held for 30 min at −80 °C. After defrosting, the cell lysates were centrifuged at 12,000 rpm for 30 min at 4 °C. Then, 10 mM L-DOPA (20 µL) was mixed with the supernatants (80 µL) of the lysates in a 96-well plate. The absorbances of these mixtures were measured at 492 nm every 10 min for 1 h at 37 °C using a microplate reader (VersaMax™, Molecular Devices, Sunnyvale, CA, USA). All of these experiments were conducted individually in triplicate. […] Briefly, B16F10 cells were seeded in 6-well culture plates and pretreated with four different concentrations (0, 5, 10, or 20 µM) of each of the four analogs for 1 h, and then the cells were co-stimulated with α-MSH and IBMX for 48 h at 37 °C so as to increase their cellular tyrosinase activity. Their optical densities (ODs) were then measured using a microplate reader at 492 nm in order to quantify the dopachrome production. The inhibitory effect of each analog on cellular tyrosinase activity was evaluated using these ODs. Kojic acid (20 µM) was used as a positive control.

[3] = ABTS free radical scavenging activity assay; conditions: 100 µM, 2 min in the dark
Method: ABTS free radical scavenging activity was used to evaluate the antioxidant activities of analogs 1–13, as previously described. […] This ABTS free radical solution was then diluted with absolute methanol to an absorbance of 0.70 ± 0.02 at 734 nm. Aliquots (10 µL) of the test samples (10% DMSO + 90% EtOH) were added at a final concentration of 100 µM to 90 µL of the diluted ABTS free radical solution and incubated for 2 min in the dark at room temperature. Absorbances were then measured at 734 nm using a VersaMax™ microplate reader (Molecular Devices, Sunnyvale, CA, USA). The ABTS free radical scavenging activities of the test analogs were calculated using the following formula:Scavenging activity (%) = (Ac − As) × 100/Ac where Ac is the optical density of the non-treated control and As is the optical density of the tested material.
The effects of analogs 1–13 on ABTS (2,2′-azino-bis(3-ethylbenzothiazoline-6-sulfonic acid)) free radical scavenging activity were investigated using trolox as a positive reference control. The concentrations of the analogs and trolox in the test samples were 100 µM. The free radical scavenging activities were assessed by measuring the optical densities at 734 nm after standing in the dark for 2 min. […] Analogs 7–10, with no hydroxyl groups on the β-phenyl ring, had weak ABTS and DPPH radical scavenging activities.

| partition coefficient relative to kojic acid [1] | cellular tyrosinase activity as percentage of non-treated control ([2]; 10 µM, α-MSH plus IBMX co-stimulated) | inhibition of α-MSH plus IBMX-induced cellular tyrosinase activity compared with kojic acid [2] | SMILES | tyrosinase mRNA expression level (tyrosinase) | melanin suppression relative to kojic acid at 10 µM (B16F10 cells; 10 µM) | reduction of α-MSH plus IBMX-induced increase in melanin content (B16F10 cells; 10 µM) | suppression of α-MSH plus IBMX-induced melanogenesis compared with kojic acid (B16F10 cells; analog at 2.5 µM) | inhibition of cellular tyrosinase activity compared with kojic acid ([2]; analog at 5 µM) | ABTS free radical scavenging activity [3] | reduction of α-MSH plus IBMX-induced increase in melanin content (B16F10 cells; 20 µM) | effect on melanin content compared with kojic acid (B16F10 cells) | ABTS free radical scavenging activity (in words) [3] |
| --- | --- | --- | --- | --- | --- | --- | --- | --- | --- | --- | --- | --- |
| 10^5 fold | < 100% | – | O=C1/C(=C/c2ccc(O)c(O)c2)SC(=S)N1c1ccccc1 [Analog 2, (Z)-5-(3,4-Dihydroxybenzylidene)-3-phenyl-2-thioxothiazolidin-4-one] | significantly and concentration-dependently reduced | 4.1 fold | 89.6% | as effectively as kojic acid at 10 µM | significantly inhibited tyrosinase activity more than kojic acid did at 20 µM | 96.9% | – | – | – |
| 10^5 fold | – | more than kojic acid at 20 µM | O=C1/C(=C/c2ccc(O)cc2O)SC(=S)N1c1ccccc1 [Analog 3, (Z)-5-(2,4-Dihydroxybenzylidene)-3-phenyl-2-thioxothiazolidin-4-one] | – | – | – | – | – | 82.0% | 61.3% | as effective as kojic acid at 20 µM | – |
| – | – | more than kojic acid at 20 µM | O=C1/C(=C/c2ccc(O)cc2)SC(=S)N1c1ccccc1 [Analog 1, (Z)-5-(4-Hydroxybenzylidene)-3-phenyl-2-thioxothiazolidin-4-one] | – | – | – | – | – | – | 56.3% | as effective as kojic acid at 20 µM | weak |
| – | – | more than kojic acid at 20 µM | COc1ccc(/C=C2\SC(=S)N(c3ccccc3)C2=O)cc1O [Analog 6, (Z)-5-(3-Hydroxy-4-methoxybenzylidene)-3-phenyl-2-thioxothiazolidin-4-one] | – | – | – | – | – | – | 50.9% | as effective as kojic acid at 20 µM | – |
